≈ marks a conversion by molar mass, not a printed value. Where only a bound is given, the exact number is not on record here.

One assay deals with P. aeruginosa ATCC 27853. Kind of assay: MIC assay, CLSI broth microdilution, APAE001. Type of assay: cell-based. Particulars: Pseudomonas aeruginosa; APAE001 is ATCC27853; Mueller Hinton Broth, 35 C, 20 hours. Here is the method: (§1) Minimum inhibitory concentrations (MIC) were determined by reference Clinical and Laboratory Standards Institute (CLSI) broth microdilution methods per M7-A7 [2006]. Quality control ranges utilizing E. coli ATCC 25922, P. aeruginosa ATCC 27853 and S. aureus ATCC 29213, and interpretive criteria for comparator agents were as published in CLSI M100-S17 [2007]. Briefly, serial two-fold dilutions of the test compounds were prepared at 2× concentration in Mueller Hinton Broth. The compound dilutions were mixed in 96-well assay plates in a 1:1 ratio with bacterial inoculum. The inoculum was prepared by suspension of a colony from an agar plate that was prepared the previous day. Bacteria were suspended in sterile saline and added to each assay plate to obtain a final concentration of 5×10^5 CFU/mL. The plates were incubated at 35 C for 20 hours in ambient air.
(In general: Dilution methods test growth across graded concentrations, often in twofold steps.)

The subject of a further assay is E. coli ATCC 25922. Nature of the assay: MIC assay, CLSI broth microdilution, AECO001. Type of assay: cell-based. Particulars: Escherichia coli; AECO001 is ATCC25922; Mueller Hinton Broth, 35 C, 20 hours. Here is the method:
as §1

As to `NCC1=CC[C@@H](N)[C@@H](O[C@H]2[C@H](O[C@@H]3O[C@H](CO)[C@@H](O[C@H]4OC(CN)[C@@H](O)[C@H](O)[C@H]4N)[C@H]3O)[C@@H](O)[C@H](N)C[C@@H]2N)O1` (stereo partly shown) [1/10, 4′,5′-dehydro-3′-deoxy-neomycin], the MIC in the assay with P. aeruginosa ATCC 27853 was at most 1 µg/mL; in the assay with E. coli ATCC 25922, 1 to 16 µg/mL (≈ 1.72 to 27.6 µM).

`NCC1O[C@H](O[C@H]2[C@@H](O)[C@H](O[C@@H]3[C@@H](O)[C@H](N)C[C@H](N)[C@H]3O[C@H]3OC(CO)=CC[C@H]3N)O[C@@H]2CO)[C@H](N)[C@@H](O)[C@@H]1O` (stereo partly shown) [2/3, 4′,5′-dehydro-3′-deoxy-paromomycin]: the MIC against P. aeruginosa ATCC 27853 and with E. coli ATCC 25922 was above 16 µg/mL in each case.

`CNCC1=C[C@H](O)[C@@H](N)[C@@H](O[C@H]2[C@H](O[C@@H]3O[C@H](CO)[C@@H](O[C@H]4OC(CN)[C@@H](O)[C@H](O)[C@H]4N)[C@H]3O)[C@@H](O)[C@H](N)C[C@@H]2N)O1` (stereo partly shown) [3/3, 6′-N-methyl-4′,5′-dehydro-neomycin]: the MIC was at most 1 µg/mL against P. aeruginosa ATCC 27853 and 1 to 16 µg/mL (≈ 1.64 to 26.2 µM) in the assay on E. coli ATCC 25922.

Take `CNCC1=CC[C@@H](N)[C@@H](O[C@H]2[C@H](O[C@@H]3O[C@H](CO)[C@@H](O[C@H]4OC(CN)[C@@H](O)[C@H](O)[C@H]4N)[C@H]3O)[C@@H](O)[C@H](N)C[C@@H]2N)O1` (stereo partly shown) [4/3, 6′-N-methyl-4′,5′-dehydro-3′-deoxy-neomycin]: the MIC in the assay with P. aeruginosa ATCC 27853 and against E. coli ATCC 25922 was 1 to 16 µg/mL (≈ 1.68 to 26.9 µM) in each case.

As for `NCC[C@H](O)C(=O)N[C@@H]1C[C@H](N)[C@@H](O[C@H]2OC(CN)=CC[C@H]2N)[C@H](O[C@@H]2O[C@H](CO)[C@@H](O[C@H]3O[C@@H](CN)[C@@H](O)[C@H](O)[C@H]3N)[C@H]2O)[C@H]1O` [5/6, 1-(2(S)-hydroxy-4-amino-butyryl)-4′,5′-dehydro-3′-deoxy-neomycin], the minimum inhibitory concentration (MIC) against P. aeruginosa ATCC 27853 and with E. coli ATCC 25922 was at most 1 µg/mL in each case.

A word on the MIC: it is the lowest concentration that inhibits growth of the organism. Low values mean inhibition by little substance, high ones a need for much substance.

(Values after US20120283207A1, “ANTIBACTERIAL AMINOGLYCOSIDE ANALOGS” (Achaogen, Inc., priority 2009, published 2012).)
